Source: US9526762B1, “Multidomain peptides for promoting angiogenesis” (WILLIAM MARSH RICE UNIVERSITY, priority 2013, dated 2016)

T1: MMP-2 (Homo sapiens, UniProt P08253)
T1 sequence (P08253 110-660): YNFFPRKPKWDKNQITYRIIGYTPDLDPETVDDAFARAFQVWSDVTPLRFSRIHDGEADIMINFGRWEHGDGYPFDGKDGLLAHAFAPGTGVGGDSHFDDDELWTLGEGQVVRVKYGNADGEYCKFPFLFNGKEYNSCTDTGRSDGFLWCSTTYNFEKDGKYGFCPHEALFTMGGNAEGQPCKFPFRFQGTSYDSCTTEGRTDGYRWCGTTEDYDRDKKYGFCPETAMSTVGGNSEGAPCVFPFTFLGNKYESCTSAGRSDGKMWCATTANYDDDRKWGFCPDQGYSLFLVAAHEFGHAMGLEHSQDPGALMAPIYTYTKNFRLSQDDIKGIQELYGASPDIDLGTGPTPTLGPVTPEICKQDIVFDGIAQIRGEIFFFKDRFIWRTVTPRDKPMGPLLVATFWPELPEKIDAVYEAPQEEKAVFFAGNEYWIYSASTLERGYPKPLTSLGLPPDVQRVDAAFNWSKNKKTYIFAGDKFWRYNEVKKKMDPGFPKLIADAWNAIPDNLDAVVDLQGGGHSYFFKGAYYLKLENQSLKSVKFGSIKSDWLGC

T2: angiogenic peptide SLanc: K-(SL)3(RG)(SL)3-K-G-KLTWQELYQLKYKGI
T2 chain: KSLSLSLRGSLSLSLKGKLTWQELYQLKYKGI


Assays:
[1] = system: HUVEC; assay: Scratch wound healing assay; assay type: cell-based, human; settings: 1 μM soluble peptide, low FBS (0.5%) media, 18 hr
Description: HUVEC were seeded in a 12-well plate (25,000 per well) and grown to confluence (n=6). A scratch wound was made in each of the wells with a 1 mL pipet tip. Cell surfaces were then washed with HBSS. Cell culture media with 0.5% FBS and 1 μM peptides (SLanc, SLac, PBS) alone was added on top of cells, n=6. Surfaces were imaged immediately. Cells were then incubated at 37° C. for 18 h imaged again in the same location. NIH Image J was used to measure the infiltration distance by migrating HUVEC.

[2] = molecular target: T1, MMP-2; assay: In vitro degradation of SLanc with MMP-2 (MALDI-MS); assay type: biochemical; settings: in vitro incubation with MMP-2, MALDI-MS
Excerpt: Chemical moieties introduced into the peptide sequence can tailor the host response to materials. In the design of SLanc, an MMP-2 cleavage sequence was introduced into the central peptide backbone. This sequence can be cleaved specifically with MMP-2, which is secreted by a host of infiltrating cells ranging from macrophages to fibroblasts. […] Additional functionality was afforded to SLanc to enhance angiogenesis by addition of QK derived from VEGF-165.

[3] = system: human mesenchymal stem cells (hMSCs); assay: hMSC adhesion on hydrogel scaffolds; assay type: cell-based; settings: 2000 hMSC per gel, 5 days at 37° C., nuclei counted
Description: SLanc, SLac, SL, and RTT hydrogels (50 μL) were cast in 16-well chamber slides (n=6). hMSC (2000 on each gel) were seeded, and compared to TCP surfaces. Cells were incubated for 5 days at 37° C. Actin filaments were stained with Alexafluor Phalloidin 488 (Life Technologies) and DAPI (Life Technologies). Cell morphology was noted and nuclei counted to quantify proliferation.

[4] = system: THP-1 cells; assay: Immunogenicity with THP-1 cells atop scaffolds (ELISA); assay type: cell-based; settings: ELISA at 24 hr
Description: 200 μL gels were cast in 24 well plates. Rat tail tendon (RTT), Puramatrix™ (Pura) and Matrigel™ were used as gel controls, and TCP with macrophages differentiated to M1 (20 ng/mL IFN-γ+LPS) and M2 (20 ng/mL IL-4) phenotype were used as cell controls. THP-1 cells in suspension were suspended in media and incubated at a concentration of 1M cells/well atop scaffolds. Media aliquots were assayed for inflammatory (IL-1β, TNF-α), and anti-inflammatory (IL-10) at 24 hr using ELISA (Biolegend, Calif.).

[5] = system: Wistar rats; assay: Subcutaneous implants in rats, histologic and angiogenic evaluation; assay type: in vivo; settings: rat
Description: Female Wisar rats (225-250 g, Charles River Labs, Wilmington, Mass.) were anesthetized using isofluorane (2% for induction and 1% for maintenance), dorsal aspect shaved and sterilely prepped. Hydrogel scaffolds of each SL, SLc, SLac, SLanc or controls: Pura, VEGF (1 μg/mL) were made were loaded in syringes with 22 gage needles. 200 μL subcutaneous injections were injected in 4 different 1.5 inch spaced randomized sites on the dorsal aspect, on either side between the lower thoracic and upper lumber vertebrae. At prescribed timepoints 3 day, 1 week, 2 weeks and […] rats were euthanized using an overdose of isoflurane, CO2 asphyxiation, and bilateral thoracic puncture. The dorsal skin was removed around the entire implant, washed with PBS, and fixed in neutral buffered formalin for 24 hr prior to processing.
Tissue was processed to paraffin blocks, sectioned at 7 μm, deparraffinized and stained for cellular infiltrate using H&E. Cellular infiltrate was determined using immunostaining Mural cell staining associated with angiogenesis was determined by staining for endothelial cells: goat anti-rat CD31+ (Santa Cruz Biotechnology), mouse anti-rat vWF (ABCam); smooth muscle cells: rabbit anti-rat α-SMA+ (Dako); pericytes: mouse anti-rat Nestin+ (Millipore); hematopoitic stem cells: mouse anti-rat CD45 (Santa Cruz Biotechnology), and nucleic DAPI counterstain. Secondary antibodies used were goat anti-rabbit AF 488, donkey anti-goat AF 488, anti-goat AF 488 (Life Technologies), donkey Streptavidin AF 647 (Life Technologies), goat anti-mouse AF 647 and donkey anti-rabbit AF 647. Angiogenesis was quantified by measuring the diameter of vessels (small axis for non-circular vessels), density of vessels (vessels per unit area), presence and thickness of vessel wall (graded from 1 to 3: 1—non-contiguous vessel wall, 2: contiguous thin vessel wall, 3: contiguous multicell thick vessel wall) (n=4 separate sections, n=4 samples).
In modeled diseases such as ligated femoral artery ischemic limb wounds or myocardial infarction several host tissue responses are activated. From secretion of mediators of inflammation such as MCP-1, IL-4, IL-10, SDF-1 and GCSF to growth factors such as VEGF, FGF and EGF extrinsic factors can drastically influence performance of novel materials. As such, prior to use in a disease model, evaluation of scaffolds without concomitant influence from native immune responses was critical. 200 μL subcutaneous implants were randomly made in the dorsal aspect of Wistar rats between the cervical and lumbar vertebrae and 1-2 cm lateral to the midline. 1 w % scaffolds were prepared aseptically by crosslinking 2 w % peptide with an equal volume of HBSS, and injected via 21 gage needle below the skin. At 3 day, 1 week, 2 week and 3 week timepoints, rats were euthanized and scaffolds with surrounding tissue and skin removed. Scaffolds were trimmed, fixed in formalin, embedded in paraffin, sectioned and (immuno-) stained. […] These scaffolds seemed to have completely diffused away or degraded 3 days post-implant. […] Development of blood vessels is dependent on the stimuli the host and scaffold provides. VEGF loaded scaffolds presented 100 ng of recombinant protein (13 nM) within scaffolds. […] These cells of immune, hematopeotic and mesenchymal origin provide a niche for reconstitution of scaffolds. Coupled with recruitment and growth of endothelial feeders from existing vessels, we posit that pericytic cells enhance stability of growing vessels in a paracrine fashion providing adequate support for generation of arterioles.

[6] = molecular target: T2, angiogenic peptide SLanc: …

Row | fibrous capsule around implant ([5]; subcutaneous implant) | Molecule | migration of HUVEC into scratch wound [1] | degradation by MMP-2 [2] | hMSC adhesion to scaffold [3] | IL-1β secretion by THP-1 cells [4] | TNF-α secretion by THP-1 cells [4] | cellular infiltration of scaffold (H&E) ([5]; 200 μL subcutaneous injection, 1 w % scaffold) | perfusion of neovessels (CD45 / vWF immunostaining) ([5]; subcutaneous implant) | time to development of angiogenic networks ([5]; subcutaneous implant) [days] | time to resorption of vessels and implants ([5]; subcutaneous implant) [weeks] | time to stable vessels ([5]; subcutaneous implant) [days] | vessels in scaffold at 3 day ([5]; subcutaneous implant, 3 day) | vessel maturity by immunostaining at 7 day and 2 weeks ([5]; subcutaneous implant, 7 day and 2 weeks) | hemangiomas or hemorrhaging ([5]; subcutaneous implant, up to 3 weeks) | macro-scale vessels visible upon explant ([5]; subcutaneous implant, compared to SLc or SLc+VEGF scaffolds) | enzymatic cleavage of the peptide, MALDI mass spectrometry of fragments [6]
1 | – | K-(SL)3-(RG)-(SL)3-K-(GRGDS) (KSLSLSLRGSLSLSLKGRGDS) [SLac, adhesion and cleavage peptide] | significantly higher proliferation than TCP | – | – | – | – | – | – | – | – | – | – | – | – | – | –
2 | lack of a fibrous capsule | Ac-KSLSLSLRGSLSLSLKGKLTWQELYQLKYKGI-NH2 [SLanc, K-(SL)3(RG)(SL)3-K-G-KLTWQELYQLKYKGI] | significantly higher proliferation than TCP | yields a variety of peptide fragments around the cleavage site | increased adhesion to SLanc over non-functionalized scaffolds | significantly lower than LPS activated cells, with levels similar to commercially available scaffolds (Puramatrix™ and Matrigel™) | significantly lower than LPS activated cells, with levels similar to commercially available scaffolds (Puramatrix™ and Matrigel™) | significantly greater cellular population | CD45+ hematopoietic cells were noted within vWF+ vessels suggesting patent perfused mature neovessels | ≤ 3 | ≤ 3 | ≤ 7 | small nascent vessels | mature Nestin+, α-SMA+, and CD31+ cells | without development of hemangiomas or hemorrhaging | visible macro-scale vessels | –
3 | – | MMP-2 (protein) YNFFPRKPKWDKNQITYRIIGYTPDLDPETVDDAFARAFQVWSDVTPLRFSRIHDGEADIMINFGRWEHGDGYPFDGKDGLLAHAFAPGTGVGGDSHFDDDELWTLGEGQVVRVKYGNADGEYCKFPFLFNGKEYNSCTDTGRSDGFLWCSTTYNFEKDGKYGFCPHEALFTMGGNAEGQPCKFPFRFQGTSYDSCTTEGRTDGYRWCGTTEDYDRDKKYGFCPETAMSTVGGNSEGAPCVFPFTFLGNKYESCTSAGRSDGKMWCATTANYDDDRKWGFCPDQGYSLFLVAAHEFGHAMGLEHSQDPGALMAPIYTYTKNFRLSQDDIKGIQELYGASPDIDLGTGPTPTLGPVTPEICKQDIVFDGIAQIRGEIFFFKDRFIWRTVTPRDKPMGPLLVATFWPELPEKIDAVYEAPQEEKAVFFAGNEYWIYSASTLERGYPKPLTSLGLPPDVQRVDAAFNWSKNKKTYIFAGDKFWRYNEVKKKMDPGFPKLIADAWNAIPDNLDAVVDLQGGGHSYFFKGAYYLKLENQSLKSVKFGSIKSDWLGC | – | – | – | – | – | – | – | – | – | – | – | – | – | – | In vitro demonstration of physiological degradation of SLanc with the addition of MMP-2, yields a variety of peptide fragments around the cleavage site
